Reference: patent US20240287042A1, “NOVEL COMPOUND HAVING INHIBITORY ACTIVITY AGAINST PENDRIN, AND PHARMACEUTICAL USES THEREOF” (UIF (University Industry Foundation), Yonsei University, priority 2021, published 2024)

Target: T1, human wild-type (WT)-pendrin (Homo sapiens, UniProt O43511)
T1 construct: expressed in transfected cells
T1 sequence (O43511 1-780): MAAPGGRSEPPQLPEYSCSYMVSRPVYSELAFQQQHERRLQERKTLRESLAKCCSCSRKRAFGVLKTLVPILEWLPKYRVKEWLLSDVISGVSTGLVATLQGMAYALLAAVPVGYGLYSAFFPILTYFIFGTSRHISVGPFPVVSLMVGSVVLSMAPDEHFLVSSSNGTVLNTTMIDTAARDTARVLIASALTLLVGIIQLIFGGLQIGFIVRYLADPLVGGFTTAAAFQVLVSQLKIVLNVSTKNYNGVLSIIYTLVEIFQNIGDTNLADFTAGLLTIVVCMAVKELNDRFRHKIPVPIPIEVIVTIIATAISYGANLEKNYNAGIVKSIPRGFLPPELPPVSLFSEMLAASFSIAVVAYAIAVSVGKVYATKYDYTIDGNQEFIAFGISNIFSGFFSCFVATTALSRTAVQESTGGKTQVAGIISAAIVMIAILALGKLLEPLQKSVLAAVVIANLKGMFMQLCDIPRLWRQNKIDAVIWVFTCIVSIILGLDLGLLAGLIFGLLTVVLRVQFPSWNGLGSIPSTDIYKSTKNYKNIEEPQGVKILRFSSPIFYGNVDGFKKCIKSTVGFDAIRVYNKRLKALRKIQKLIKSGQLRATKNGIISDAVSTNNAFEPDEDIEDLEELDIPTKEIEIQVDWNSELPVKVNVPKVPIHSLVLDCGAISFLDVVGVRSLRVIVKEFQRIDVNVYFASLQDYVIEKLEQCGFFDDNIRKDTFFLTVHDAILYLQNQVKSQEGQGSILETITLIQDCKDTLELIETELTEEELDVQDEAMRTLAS
Test: Pendrin Cl−/I− exchange inhibitory activity, YFP fluorescence in CHO-K1 cells
Format: cell-based
Conditions: CHO-K1; for inhibition at 1 µM: compound concentration 1 μM; for inhibition at 3 µM: compound concentration 3 μM; for inhibition at 10 µM: compound concentration 10 μM; for inhibition at 30 µM: compound concentration 30 μM; for inhibition at 100 µM: compound concentration 100 μM
Procedure: Chinese hamster ovary (CHO)-K1 cells were cultured in DMEM medium containing 10% fetal bovine serum (FBS), 100 units/ml of penicillin and 100 μg/ml streptomycin. CHO-K1 cells were stably transfected with pcDNA3.1 encoding the halide sensor YFP-H148Q/I152L/F46L and human wild-type (WT)-pendrin.
(§1) CHO-K1 cells expressing human WT pendrin and YFP-F46L/H148Q/I152L were plated in 96-well microplates at a density of 2×10^4 cells per well, and cultured for 48 hours. Each well of the cell cultured 96-well plate was washed 2 times with 200 μL of PBS, and filled with 50 μL of HEPES buffered solution (140 mM NaCl, 5 mM KCl, 1 mM MgCl2, 1 mM CaCl2), 10 mM glucose and 10 mM HEPES (pH 7.4)). Test compounds (1 μL) were added to a final concentration of 1, 3, 10, 30 and 100 μM. After culturing at 37° C. for 10 minutes, the 96-well plate was located on the FLUOstar Omega Microplate Reader (BMG Labtech, Ortenberg, Germany) for a fluorescence assay. Fluorescence was recorded continuously (400 ms per point) for 1 second (baseline), whereby each well was assayed individually for pendrin-mediated I-influx. Then 50 μL of Na-substituted HEPES buffered solution (replacing NaCl with NaI) was added using a liquid injector at 1 second, and YFP fluorescence was recorded for 5 seconds. The initial iodide influx rate was determined from the initial slope of fluorescence by nonlinear regression, after the injection of iodide.
as §1, with “Chinese hamster ovary (CHO)-K1 cells were cultured in DMEM medium containing 10% fetal bovine serum (FBS), 100 units/ml of penicillin and 100 μg/ml streptomycin. CHO-K1 cells were stably transfected with pcDNA3.1 encoding the halide sensor YFP-H148Q/I152L/F46L and human wild-type (WT)-pendrin. 3-2: Assay of Cl^−/I^− exchange activity CHO-K1” for “CHO-K1”, “50” for “1, 3, 10, 30 and 100”, “Then,” for “Then”, “NaI-substituted” for “Na-substituted”

Row | SMILES | inhibition at 1 µM [%] | inhibition at 3 µM [%] | inhibition at 10 µM [%] | inhibition at 30 µM [%] | inhibition at 100 µM [%]
1 | Cc1ccc2[nH]c(C(=O)O)c(CC(=O)N3CCN(c4ccc(C(C)(C)C)cc4)CC3)c2c1 [YPI-A4944, 3-(2-(4-(4-(Tert-butyl)phenyl)piperazin-1-yl)-2-oxoethyl)-5-methyl-1H-indole-2-carboxylic acid] | < 20 | < 20 | 45.4 | 76.2 | 77.3
2 | Cc1cc(C)c2[nH]c(C(=O)O)c(CC(=O)N3CCN(c4ccc(C(C)(C)C)cc4)CC3)c2c1 [YPI-A4945] | < 20 | < 20 | < 20 | 38.5 | 38.6
3 | Cc1cc(C)c2[nH]c(C(=O)O)c(CC(=O)N3CCN(c4c(C)cccc4C)CC3)c2c1 [YPI-A4947, 3-(2-(4-(2,6-dimethylphenyl)piperazin-1-yl)-2-oxoethyl)-5,7-dimethyl-1H-indole-2-carboxylic acid] | < 20 | < 20 | 40.8 | 41.3 | 41.9
4 | Cc1cc(C)c2[nH]c(C(=O)O)c(CC(=O)N3CCN(c4c(C)cccc4Cl)CC3)c2c1 [YPI-A4949, 3-(2-(4-(2-Chloro-6-methylphenyl)piperazin-1-yl)-2-oxoethyl)-5,7-dimethyl-1H-indole-2-carboxylic acid] | < 20 | 39.5 | 78.9 | 79.3 | 79.6
5 | CC(C)(C)c1ccc(N2CCN(C(=O)Cc3c(C(=O)O)[nH]c4ccc(F)cc34)CC2)cc1 [YPI-A4965, 3-(2-(4-(4-(Tert-butyl)phenyl)piperazin-1-yl)-2-oxoethyl)-5-fluoro-1H-indole-2-carboxylic acid] | < 20 | < 20 | < 20 | 62.7 | 
6 | O=C(O)c1[nH]c2ccc(Cl)cc2c1CC(=O)N1CCN(c2ccc(-c3ccccc3)cc2)CC1 [YPI-A4966, 3-(2-(4-([1,1′-biphenyl]-4-yl)piperazin-1-yl)-2-oxoethyl)-5-chloro-1H-indole-2-carboxylic acid] | < 20 | < 20 | < 20 | < 20 | < 20

Results, then the molecule that gave them:

Row | inhibition at 1 µM [%] | inhibition at 3 µM [%] | inhibition at 10 µM [%] | inhibition at 30 µM [%] | inhibition at 100 µM [%] | SMILES
7 | 22.4 | 56.9 | 82.3 | 94.5 | 95.6 | Cc1ccc2[nH]c(C(=O)O)c(CC(=O)N3CCN(c4c(C)cccc4C)CC3)c2c1 [YPI-A4946, 3-(2-(4-(2,6-Dimethylphenyl)piperazin-1-yl)-2-oxoethyl)-5-methyl-1H-indole-2-carboxylic acid]
8 | < 20 | 52.3 | 89.6 | 100 |  | Cc1cccc(Cl)c1N1CCN(C(=O)Cc2c(C(=O)O)[nH]c3ccc(F)cc23)CC1 [YPI-A4963, 3-(2-(4-(2-Chloro-6-methylphenyl)piperazin-1-yl)-2-oxoethyl)-5-fluoro-1H-indole-2-carboxylic acid]
9 | < 20 | < 20 | 51.4 | 88.9 |  | Cc1cccc(C)c1N1CCN(C(=O)Cc2c(C(=O)O)[nH]c3ccc(F)cc23)CC1 [YPI-A4964, 3-(2-(4-(2,6-Dimethylphenyl)piperazin-1-yl)-2-oxoethyl)-5-fluoro-1H-indole-2-carboxylic acid]
